Test results published in article PMC9065035, “Structural basis for the synthesis of the core 1 structure by C1GalT1” (Nature Communications, 2022).
“And” between values parts separate entries of the source, which are not always exact repeats. Equal entries are not always repeated. Peptide text beside a SMILES is read from it. * marks the point of attachment. αGalNAc = CC(=O)N[C@@H]1[C@@H](O)[C@@H](O)[C@@H](CO)O[C@@H]1*

Key:
DmC1GalT1^T43-Q388 [1] = target: T1, DmC1GalT1^T43-Q388 (Drosophila melanogaster, UniProt Q7K237); experiment: UDP-Glo glycosylation kinetics of DmC1GalT1 T43-Q388; settings: 500 µM UDP-Gal; for kcat app/Km app (catalytic efficiency): ± standard error
T1 sequence (Q7K237 43-388): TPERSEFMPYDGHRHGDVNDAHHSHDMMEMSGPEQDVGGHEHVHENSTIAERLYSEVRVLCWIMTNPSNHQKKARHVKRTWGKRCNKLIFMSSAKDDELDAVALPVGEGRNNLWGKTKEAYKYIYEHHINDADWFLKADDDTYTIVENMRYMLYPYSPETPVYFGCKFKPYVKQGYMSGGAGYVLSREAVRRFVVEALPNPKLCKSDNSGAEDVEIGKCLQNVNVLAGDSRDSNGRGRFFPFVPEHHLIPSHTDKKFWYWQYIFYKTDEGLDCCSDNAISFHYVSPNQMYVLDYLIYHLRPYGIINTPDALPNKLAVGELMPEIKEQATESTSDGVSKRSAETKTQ

DmC1GalT1^T43-Q388 [2] = target: T1, DmC1GalT1^T43-Q388; experiment: Isothermal titration calorimetry (ITC); format: binding; design: made in house; settings: for Kd: 25 mM TRIS pH 7.5, 150 mM NaCl, one-site fit ± fit error, n = 2
Experimental: ITC was used to characterize the interaction of DmC1GalT1^T43-Q388 with UDP, APDT*RP with and without UDP, APDTRP with UDP, and P4/P7 with and without UDP. All experiments were carried out in an Auto-iTC200 (Microcal, GE Healthcare) at 20 °C. The titration of DmC1GalT1^T43-Q388 with UDP was carried out at 100 μM of the enzyme with 800 μM UDP in 25 mM TRIS pH 7.5, 150 mM NaCl and 1 mM MnCl2. The titrations with APDT*RP and P4/P7 in the absence of UDP were carried out at 60 μM of the enzyme with 2 mM P4/P7 in 25 mM TRIS pH 7.5, 150 mM NaCl and 1 mM MnCl2. To determine the Kds for APDT*RP, APDTRP and P4/P7 under an excess of UDP, the experiments were made in 25 mM TRIS pH 7.5, 150 mM NaCl, 1 mM UDP and 1 mM MnCl2. The concentration of the enzyme was 60 μM for the titrations of APDT*RP and APDTRP and 50 μM for the titration with P4/P7. The concentration of the (glyco)peptides was 2 mM in all the ITC experiments. The experiments were performed in duplicate. Data integration, correction and analysis were carried out in Origin 7 (Microcal). The data were fit to a one-site equilibrium-binding model. Stoichiometry (n) of binding in all cases was ~1:1 except for UDP whose n = 0.4.

DmC1GalT1^T43-Q388 [3] = target: T1, DmC1GalT1^T43-Q388; experiment: STD NMR experiments; format: binding; design: made in house; settings: presence of UDP ([…]) and 150 µM MnCl2; 20 µM enzyme, 710 µM ligand
Experimental: STD NMR experiments were performed using a 1:35 molar ratio, defined by 20 μM DmC1GalT1^T43-Q388 and 710 μM ligands (α-O-methyl-GalNAc, and (glyco)peptides), and 25 mM Tris(D11)-DCl buffer, pD 7.5, with 150 mM NaCl and 150 µM MnCl2 in D2O. […] In the presence of 150 µM MnCl2, strong paramagnetic relaxation enhancements are observed for UDP, which prevents the observation of UDP proton signals in the NMR spectra. […] STD NMR spectra (stddiffesgp pulse sequence from Bruker pulse program library) were acquired with 1728 scans and 64 K data points, in a spectral window of 12335.53 Hz centered at 2818 Hz. Selective saturation (on resonance) was performed by irradiating at 7 and/or −0.5 ppm (depending if the ligand contains or not aromatic residues) using a series of 40 Eburp2.1000-shaped (from Bruker shaped pulses library) 90° pulses (50 ms) for a total saturation time of 2 s, and a relaxation delay of 4 s. For the reference spectrum (off resonance), the samples were irradiated at 100 ppm. Proper control experiments were performed for each ligand in the absence of protein and residual STD signals of the methyl groups of Ala/Thr were observed. […] Protein control experiments were also accomplished using DmC1GalT1^T43-Q388 in absence of a ligand and also subtracted from STD experiment. The STD spectrum (ISTD) was obtained by subtracting the on-resonance spectrum (Ion) to the off-resonance spectrum (Ioff). The % of STD (ISTD/Ioff × 100) was estimated by comparing the intensity of the signals in the STD spectrum (ISTD) with the signal intensities of the reference spectrum (Ioff). The STD amplification factor (STDAF) was also estimated by multiplying the % STD values by the ligand excess, which in the case of our experiments was 35 for every ligand. To determine the STD-derived epitope map the relative % of STD were calculated by setting to 100% the STD signal of the proton with the highest STD intensity and calculating the others accordingly (Supplementary Tables 2–4). Some protons were not able to be assessed with accuracy due to the use of water suppression or low signal/noise ratio and display a blue circle in the STD-derived epitope maps. Moreover, the resonances overlapped on the ^1H-NMR spectrum were considered in STD estimation and are labelled as *.

[4] = Activity of DmC1GalT1 mutants (UDP-Glo); format: biochemical, Drosophila melanogaster; settings: 500 µM UDP-Gal, 500 µM APDT*RP
Excerpt: The DNA sequence encoding amino acid residues of the DmC1GalT1 (aa T43-Q388) was codon optimized and synthesized by GenScript (USA) for expression in HEK293 cells (GIBCO). The construct, containing at the 5′-end a recognition sequence for AgeI, and at the 3′-end a recognition sequence for KpnI, was cloned into a pHLSec plasmid that contained a sequence encoding a 6xHis tag at the 3′-end followed by a stop codon, rendering the vector pHLSec-DmC1GalT1-6His. The cloning of the construct into pHLSec was performed by GenScript. All mutants in DmC1GalT1 (R152A, Y213A, Y218A, D255A, W300A and Y325A) were generated following a standard site-directed mutagenesis protocol by GenScript using the vector pHLSec-DmC1GALT1-6His. pHLSec-DmC1GalT1-6His and all the plasmids encoding for the different mutants were transfected into HEK293 cell line as described below. For DNA amplification, all plasmids were transformed in E. coli DH5α cells and extracted with PureLink™ Expi Endotoxin-Free Giga Plasmid Purification Kit (Invitrogen) according to the manufacturer’s instructions. Cells were grown in suspension in a humidified 37 °C and 8% CO2 incubator with rotation at 125 rpm. Transfection was performed at a cell density of 2.5 × 10^6 cell/mL in fresh media F17 serum-free media (Gibco) with 2% Glutamax and 0.1% Kolliphor® P 188. For each 150 mL of culture, 450 μg of the plasmid (1 μg/μL) was mixed with 135 μL of sterilized 1.5 M NaCl. This mixture was added to each 150 mL cell culture flask and incubated for 5 min in the incubator. […] Cells were diluted 1:1 with pre-warmed media supplemented with valproic acid 24 h post-transfection to a final concentration of 2.2 mM. Then, cells were harvested 6 days post-transfection by spinning down at 300 × g for 5 min, after which the supernatants were collected and centrifuged at 4000 × g for 15 min. Supernatant was dialyzed against buffer A and loaded into a His-Trap Column (GE Healthcare). Protein was eluted with an imidazol gradient in buffer A from 10 mM up to 400 mM. Buffer exchange to buffer C was carried out using a HiPrep 26/10 Desalting Column (GE Healthcare). The isolated DmC1GalT1-His and its mutants were then loaded in HiLoad 26/60 Superdex 75 Colum (GE Healthcare), previously equilibrated with buffer C.

[5] = acceptor varied, 500 nM enzyme, pH 7.5, 30 min 37 °C, n = 2
[6] = Kd, excess UDP (1 mM UDP, 1 mM MnCl2), 2 mM (glyco)peptide, 50–60 µM enzyme, 20 °C
[7] = excess UDP (1 mM), 1 mM MnCl2, 20 °C

What does the source list for CC(=O)N[C@H]1[C@@H](O[C@H](C)[C@H](NC(=O)[C@H](CC(=O)O)NC(=O)[C@@H]2CCCN2C(=O)[C@H](C)N)C(=O)N[C@@H](CCCNC(=N)N)C(=O)N2CCC[C@H]2C(N)=O)O[C@H](CO)[C@H](O)[C@@H]1O [APDT*RP]?
kcat app/Km app (catalytic efficiency) (DmC1GalT1^T43-Q388 [1]; [5]): 300 ± 67 M⁻¹ s⁻¹ and 301.5 M⁻¹ s⁻¹; Kd (DmC1GalT1^T43-Q388 [2]; [6]): 173 µM; Kd (DmC1GalT1^T43-Q388 [2]; absence of UDP, 2 mM glycopeptide, 60 µM enzyme, 1 mM MnCl2, 20 °C): Not measurable under our conditions

With APDTRP as the compound, how does the “activity as acceptor substrate” value (DmC1GalT1^T43-Q388 [1]) read?
Its value is “inactive”.

What about the Km app (DmC1GalT1^T43-Q388 [1]; acceptor substrate varied (P1–P7 12.5–500 µM; APDT*RP/APDS*RP 12.5–1000 µM; α-O-methyl-GalNAc up to 2 mM), 500 nM enzyme, 25 mM Tris pH 7.5, 150 mM NaCl, 50 µM MnCl2, 1 mg/ml BSA, 30 min 37 °C, Michaelis–Menten fit ± standard error, n = 2) of the same compound?
The Km app was “not active”.

And the kcat app (DmC1GalT1^T43-Q388 [1]; acceptor varied, 500 nM enzyme, pH 7.5, 30 min 37 °C, Michaelis–Menten fit ± standard error, n = 2)?
The kcat app was “not active”.

What about the “kcat app/Km app (catalytic efficiency)” value (DmC1GalT1^T43-Q388 [1]; [5]) of the same compound?
The value was “not active”.

And the Km (DmC1GalT1^T43-Q388 [1]; read-out: Km app, acceptor substrate varied (P1–P7 12.5–500 µM; APDT*RP/APDS*RP 12.5–1000 µM; α-O-methyl-GalNAc up to 2 mM), 500 nM enzyme, 25 mM Tris pH 7.5, 150 mM NaCl, 50 µM MnCl2, 1 mg/ml BSA, 30 min 37 °C, Michaelis–Menten fit ± standard error, n = 2)?
Its Km is ~50 µM.

And the Kd (DmC1GalT1^T43-Q388 [2]; excess UDP (1 mM UDP, 1 mM MnCl2), 2 mM (glyco)peptide, 50–60 µM enzyme, 20 °C)?
The Kd was “Not measurable under our conditions”.

And the “-TΔS” value (DmC1GalT1^T43-Q388 [2]; [7])?
The value was “Not measurable under our conditions”.

And the “n (stoichiometry of binding)” value (DmC1GalT1^T43-Q388 [2]; [7])?
The value was “Not measurable under our conditions”.

What about the ΔG (DmC1GalT1^T43-Q388 [2]; [7]) of the same compound?
The ΔG was “Not measurable under our conditions”.

What about the ΔH (DmC1GalT1^T43-Q388 [2]; [7]) of the same compound?
The ΔH was “Not measurable under our conditions”.

What about the “binding by ITC” value (DmC1GalT1^T43-Q388 [2]; presence of an excess of UDP) of the same compound?
Its value is “no binding”.

What about the “STD response” value (DmC1GalT1^T43-Q388 [3]) of the same compound?
The value was “did not display STD response”.

For Y218A: DmC1GalT1 Ala mutant of Tyr218, which “activity of the mutant” value [4] is on record?
Its value is “inactive”.

Which “activity of the mutant” value [4] does the source give for W300A: DmC1GalT1 Ala mutant of Trp300 here?
The value was “inactive”.

What does the source list for CC(=O)N[C@H]1[C@@H](O[C@H](C)[C@H](NC(=O)[C@H](CC(=O)O)NC(=O)[C@H](C)NC(=O)[C@@H](N)Cc2ccc(O)cc2)C(=O)NCC(=O)N2CCC[C@H]2C(=O)N[C@@H](Cc2ccccc2)C(N)=O)O[C@H](CO)[C@H](O)[C@@H]1O [P7] (H-YADT(αGalNAc)GPF-NH2)?
kcat app/Km app (catalytic efficiency) (DmC1GalT1^T43-Q388 [1]; [5]): 478.8 M⁻¹ s⁻¹; Kd (DmC1GalT1^T43-Q388 [2]; Kd, absence of UDP, 2 mM glycopeptide, 60 µM enzyme, 1 mM MnCl2, 20 °C): 37.1 µM; Kd (DmC1GalT1^T43-Q388 [2]; [6]): 60 µM
